{"source": "PubChem BioAssay AID322", "about": "(DTP/NCI, 2004)", "system": "CD2F1 mice, P388/ADR leukemia ip, median survival T/C", "assay": "NCI In Vivo Anticancer Drug Screen. Data for tumor model P388 Leukemia resistant to Adriamycin; NSC 123127, Developed at Scr 08 (intraperitoneal) in CD2F1 (CDF1) mice", "details": "endpoint: median survival time, higher = longer survival", "protocol": "The antitumor activity of compounds was measured in mice bearing transplantable tumors. Survival or tumor size were measured and the results are expressed as the measurement made in the treated group (T) divided by the measurement made in the vehicle treated control group (C). The tumor model used in this assay is P388 Leukemia resistant to Adriamycin; NSC 123127, Developed at Scr 08 (intraperitoneal) in CD2F1 (CDF1) mice", "key": {"[1]": {"details": "dose: 6.25 mg/kg/injection, schedule: Q01DX005 (ip), vehicle: saline with Tween-80"}, "[2]": {"details": "dose: 50.0 mg/kg/injection, schedule: Q01DX005 (ip), vehicle: saline with Tween-80"}, "[3]": {"details": "dose: 100.0 mg/kg/injection, schedule: Q01DX005 (ip), vehicle: saline"}, "[4]": {"details": "dose: 30.0 mg/kg/injection, schedule: Q01DX005 (ip), vehicle: saline"}}, "note": "“And” between values parts separate entries of the source, which are not always exact repeats. Equal entries are not always repeated. Inconclusive results and toxic doses are left out."}
{"smiles": "COc1ccc(CCN(C)CCCC(C#N)(c2ccc(OC)c(OC)c2)C(C)C)cc1OC", "note": "(centres undefined)", "values": [{"measurement": "T/C", "setting": "dose: 8.0 mg/kg/injection, schedule: Q03HX006 (ip), vehicle: saline", "value": "110 % of control"}, {"measurement": "T/C", "setting": "dose: 16.0 mg/kg/injection, schedule: Q03HX006 (ip), vehicle: saline", "value": "104 % of control"}, {"measurement": "T/C", "setting": "dose: 32.0 mg/kg/injection, schedule: Q03HX006 (ip), vehicle: saline", "value": "103 % of control"}]}
{"smiles": "O=[N+]([O-])c1ccc(N(CCO)CCO)c2c1no[n+]2[O-]", "values": [{"measurement": "T/C", "setting": "dose: 3.12 mg/kg/injection, schedule: Q01DX005 (ip), vehicle: saline with Tween-80", "value": "114 % of control"}, {"measurement": "T/C", "setting": "[1]", "value": "124 % of control"}]}
{"smiles": "BrC[P+](CBr)(CBr)CBr", "values": [{"measurement": "T/C", "setting": "[2]", "value": "109 % of control and 119 % of control"}, {"measurement": "T/C", "setting": "dose: 100.0 mg/kg/injection, schedule: Q01DX005 (ip), vehicle: saline with Tween-80", "value": "115 % of control"}, {"measurement": "T/C", "setting": "dose: 144.0 mg/kg/injection, schedule: Q01DX005 (ip), vehicle: saline with Tween-80", "value": "111 % of control"}, {"measurement": "T/C", "setting": "dose: 240.0 mg/kg/injection, schedule: Q01DX005 (ip), vehicle: saline with Tween-80", "value": "112 % of control"}, {"measurement": "T/C", "setting": "dose: 666.67 mg/kg/injection, schedule: Q01DX005 (ip), vehicle: saline with Tween-80", "value": "166 % of control"}]}
{"smiles": "COc1cc([C@@H]2c3cc4c(cc3[C@@H](OC3OC5COC(C)OC5C(O)C3O)[C@H]3COC(=O)[C@H]23)OCO4)cc(OC)c1O", "note": "(some centres undefined)", "values": [{"measurement": "T/C", "setting": "dose: 18.0 mg/kg/injection, schedule: Q04DX003 (ip), vehicle: Klucel (hydroxypropylcellulose) (HPC)", "value": "113 % of control"}, {"measurement": "T/C", "setting": "dose: 27.0 mg/kg/injection, schedule: Q04DX003 (ip), vehicle: Klucel (hydroxypropylcellulose) (HPC)", "value": "119 % of control"}, {"measurement": "T/C", "setting": "dose: 40.0 mg/kg/injection, schedule: Q04DX003 (ip), vehicle: Klucel (hydroxypropylcellulose) (HPC)", "value": "110 % of control"}]}
{"smiles": "NCCCN=c1ccc2c3c1c(O)c1c(O)ccc(=O)c1c3[nH]n2CCNCCO", "values": [{"measurement": "T/C", "setting": "dose: 25.0 mg/kg/injection, schedule: Q01DX001 (ip), vehicle: water", "value": "107 % of control"}]}
{"smiles": "CC[C@@]1(O)C(=O)OCc2c1cc1n(c2=O)Cc2cc3ccccc3nc2-1", "values": [{"measurement": "T/C", "setting": "dose: 1.5 mg/kg/injection, schedule: Q01DX005 (ip), vehicle: saline with Tween-80", "value": "161 % of control"}, {"measurement": "T/C", "setting": "dose: 2.1 mg/kg/injection, schedule: Q01DX005 (ip), vehicle: saline with Tween-80", "value": "223 % of control"}, {"measurement": "T/C", "setting": "dose: 3.0 mg/kg/injection, schedule: Q01DX005 (ip), vehicle: saline with Tween-80", "value": "200 % of control"}, {"measurement": "T/C", "setting": "dose: 3.6 mg/kg/injection, schedule: Q01DX005 (ip), vehicle: saline with Tween-80", "value": "222 % of control"}, {"measurement": "T/C", "setting": "dose: 6.0 mg/kg/injection, schedule: Q01DX005 (ip), vehicle: saline with Tween-80", "value": "216 % of control"}, {"measurement": "T/C", "setting": "dose: 6.7 mg/kg/injection, schedule: Q04DX002 (ip), vehicle: saline with Tween-80", "value": "198 % of control and 232 % of control"}, {"measurement": "T/C", "setting": "dose: 10.0 mg/kg/injection, schedule: Q04DX002 (ip), vehicle: saline with Tween-80", "value": "207 % of control and 232 % of control"}, {"measurement": "T/C", "setting": "dose: 15.0 mg/kg/injection, schedule: Q04DX002 (ip), vehicle: saline with Tween-80", "value": "215 % of control and 236 % of control"}]}
{"smiles": "CCOc1ccc(C(C)c2cc3c(cc2OC)OCO3)cc1", "note": "(centres undefined)", "values": [{"measurement": "T/C", "setting": "dose: 25.0 mg/kg/injection, schedule: Q01DX005 (ip), vehicle: distilled water + Tween-80", "value": "110 % of control"}, {"measurement": "T/C", "setting": "dose: 50.0 mg/kg/injection, schedule: Q01DX005 (ip), vehicle: distilled water + Tween-80", "value": "100 % of control"}, {"measurement": "T/C", "setting": "dose: 72.0 mg/kg/injection, schedule: Q01DX005 (ip), vehicle: distilled water + Tween-80", "value": "117 % of control"}, {"measurement": "T/C", "setting": "dose: 100.0 mg/kg/injection, schedule: Q01DX005 (ip), vehicle: distilled water + Tween-80", "value": "113 % of control"}, {"measurement": "T/C", "setting": "dose: 120.0 mg/kg/injection, schedule: Q01DX005 (ip), vehicle: distilled water + Tween-80", "value": "118 % of control"}, {"measurement": "T/C", "setting": "dose: 200.0 mg/kg/injection, schedule: Q01DX005 (ip), vehicle: distilled water + Tween-80", "value": "167 % of control and 184 % of control"}, {"measurement": "T/C", "setting": "dose: 333.33 mg/kg/injection, schedule: Q01DX005 (ip), vehicle: distilled water + Tween-80", "value": "165 % of control and 176 % of control"}]}
{"smiles": "O=CC(CO)CC(C=O)n1cnc2c(=O)[nH]cnc21", "note": "(centres undefined)", "values": [{"measurement": "T/C", "setting": "dose: 25.0 mg/kg/injection, schedule: Q01DX005 (ip), vehicle: saline", "value": "122 % of control and 124 % of control"}, {"measurement": "T/C", "setting": "[3]", "value": "151 % of control"}, {"measurement": "T/C", "setting": "dose: 200.0 mg/kg/injection, schedule: Q01DX005 (ip), vehicle: saline", "value": "160 % of control and 170 % of control"}, {"measurement": "T/C", "setting": "dose: 400.0 mg/kg/injection, schedule: Q01DX005 (ip), vehicle: saline", "value": "169 % of control and 170 % of control"}]}
{"smiles": "CCN(CC)CCn1[nH]c2c3ccc(=O)cc3sc3c(NCCN)ccc1c32", "values": [{"measurement": "T/C", "setting": "dose: 1.56 mg/kg/injection, schedule: Q01DX005 (ip), vehicle: water", "value": "99 % of control"}, {"measurement": "T/C", "setting": "dose: 3.12 mg/kg/injection, schedule: Q01DX005 (ip), vehicle: water", "value": "95 % of control"}, {"measurement": "T/C", "setting": "dose: 6.25 mg/kg/injection, schedule: Q01DX005 (ip), vehicle: water", "value": "106 % of control"}, {"measurement": "T/C", "setting": "dose: 12.5 mg/kg/injection, schedule: Q01DX005 (ip), vehicle: water", "value": "91 % of control"}]}
{"smiles": "CNC(=O)OCc1nc(SC)n(C)c1COC(=O)NC", "values": [{"measurement": "T/C", "setting": "[4]", "value": "155 % of control"}, {"measurement": "T/C", "setting": "dose: 40.0 mg/kg/injection, schedule: Q01DX005 (ip), vehicle: saline", "value": "154 % of control"}, {"measurement": "T/C", "setting": "dose: 50.0 mg/kg/injection, schedule: Q01DX005 (ip), vehicle: saline", "value": "158 % of control"}, {"measurement": "T/C", "setting": "dose: 51.0 mg/kg/injection, schedule: Q01DX005 (ip), vehicle: saline", "value": "163 % of control"}, {"measurement": "T/C", "setting": "dose: 65.0 mg/kg/injection, schedule: Q01DX005 (ip), vehicle: saline", "value": "155 % of control"}, {"measurement": "T/C", "setting": "dose: 77.0 mg/kg/injection, schedule: Q01DX005 (ip), vehicle: saline", "value": "91 % of control"}]}
{"smiles": "CC(=O)N(C)c1ccc(Nc2cc(C)[nH]c3ccc4ncnc4c23)cc1", "values": [{"measurement": "T/C", "setting": "[4]", "value": "98 % of control"}, {"measurement": "T/C", "setting": "dose: 44.0 mg/kg/injection, schedule: Q01DX005 (ip), vehicle: saline", "value": "114 % of control"}, {"measurement": "T/C", "setting": "[3]", "value": "122 % of control"}]}
{"smiles": "O=C1C=CC2OC(c3ccccc3)C(O)C2O1", "note": "(centres undefined)", "values": [{"measurement": "T/C", "setting": "[1]", "value": "101 % of control"}, {"measurement": "T/C", "setting": "dose: 12.5 mg/kg/injection, schedule: Q01DX005 (ip), vehicle: saline with Tween-80", "value": "114 % of control"}, {"measurement": "T/C", "setting": "[2]", "value": "119 % of control"}]}
{"smiles": "Nc1nc(F)nc2c1ncn2C1OC(COP(=O)(O)O)C(O)C1O", "note": "(centres undefined)", "values": [{"measurement": "T/C", "setting": "dose: 60.0 mg/kg/injection, schedule: Q01DX009 (ip), vehicle: saline", "value": "219 % of control and 239 % of control"}, {"measurement": "T/C", "setting": "dose: 90.0 mg/kg/injection, schedule: Q01DX009 (ip), vehicle: saline", "value": "309 % of control and 429 % of control"}, {"measurement": "T/C", "setting": "dose: 134.0 mg/kg/injection, schedule: Q01DX009 (ip), vehicle: saline", "value": "309 % of control and 445 % of control"}, {"measurement": "T/C", "setting": "dose: 200.0 mg/kg/injection, schedule: Q01DX009 (ip), vehicle: saline", "value": "309 % of control and 394 % of control"}, {"measurement": "T/C", "setting": "dose: 250.0 mg/kg/injection, schedule: Q01DX009 (ip), vehicle: saline", "value": "108 % of control"}]}
